# pIC50: −log10 of the molar value. Where “and” joins values, the source holds several entries; their conditions need not be identical. Equal entries are not always repeated.
# Assays:
# [1] = test system: G401, BT-16, DAOY and D283 cell lines; test: Flow cytometry cell cycle analysis (polyploidy), other RT and MB lines; assay type: cell-based, human; conditions: 100nM for 48 hours
# Procedure: Cell cycle evaluation was performed by staining the cells with PI (Thermo Fisher Scientific, USA) according to manufacturer’s instructions. […] Data was analyzed using Modfit LT from Verity Software House. Experiments were performed in triplicates.
# various kinases [2] = biological target: various kinases (Homo sapiens, UniProt P78527); test: biochemical; assay type: biochemical; conditions: DNA-PK
# various kinases [3] = biological target: various kinases (Homo sapiens, UniProt Q9H4B4); test: biochemical; assay type: biochemical; conditions: kinase PLK3; ZLYTE
# various kinases [4] = biological target: various kinases (Homo sapiens, UniProt P49841); test: biochemical; assay type: biochemical; conditions: GSK3B (GSK3 beta)
# various kinases [5] = biological target: various kinases (Homo sapiens, UniProt P51955); test: biochemical; assay type: biochemical; conditions: NEK2
# various kinases [6] = biological target: various kinases (Homo sapiens, UniProt Q9NR20); test: biochemical; assay type: biochemical; conditions: DYRK4
# various kinases [7] = biological target: various kinases (Homo sapiens, UniProt Q12866); test: biochemical; assay type: biochemical; conditions: MERTK (cMER)
# various kinases [8] = biological target: various kinases (Homo sapiens, UniProt P14616); test: biochemical; assay type: biochemical; conditions: INSRR (IRR)
# various kinases [9] = biological target: various kinases (Homo sapiens, UniProt P49760); test: biochemical; assay type: biochemical; conditions: CLK2
# various kinases [10] = biological target: various kinases (Homo sapiens, UniProt Q16644); test: biochemical; assay type: biochemical; conditions: MAPKAPK3
# various kinases [11] = biological target: various kinases (Homo sapiens, UniProt P08631); test: biochemical; assay type: biochemical; conditions: HCK
# various kinases [12] = biological target: various kinases (Homo sapiens, UniProt P53779); test: biochemical; assay type: biochemical; conditions: MAPK10 (JNK3)
# various kinases [13] = biological target: various kinases (Homo sapiens, UniProt P24723); test: biochemical; assay type: biochemical; conditions: kinase PRKCH (PKC eta); ZLYTE
# various kinases [14] = biological target: various kinases (Homo sapiens, UniProt Q16539); test: biochemical; assay type: biochemical
# MON cells = test: Viability assay (Presto Blue), MON; assay type: cell-based; conditions: Homo sapiens, dose-response 1nM to 10μM
# Procedure: Except DAOY and D283, all cell lines were plated with 2 x 10^3 cells per well 96-well and the absorbance was measured after 48 and 72 hours at drug concentrations of 5, 10, 50, 100, 200, 500nM, 1μM and 5μM.
# various kinases [15] = biological target: various kinases (Homo sapiens, UniProt Q9UBF8); test: Adapta Universal Kinase Assay, panel of 486 biochemical kinase assays; parameters: % Inhibition Average: concentration or dose not given beside the values; conditions: PI4KB (PI4K beta)
# various kinases [16] = biological target: various kinases (Homo sapiens, UniProt P48426); test: as above; parameters: % Inhibition Average: concentration or dose not given beside the values; conditions: PIP4K2A
# various kinases [17] = biological target: various kinases (Homo sapiens, UniProt O75747); test: as above; parameters: % Inhibition Average: concentration or dose not given beside the values; conditions: PIK3C2G (PI3K-C2 gamma)
# various kinases [18] = biological target: various kinases (Homo sapiens, UniProt P11802); test: as above; parameters: % Inhibition Average: concentration or dose not given beside the values
# various kinases [19] = biological target: various kinases (Homo sapiens, UniProt Q99755); test: as above; parameters: % Inhibition Average: concentration or dose not given beside the values; conditions: PIP5K1A
# various kinases [20] = biological target: various kinases (Homo sapiens, UniProt Q5S007, R1441C); test: as above; parameters: % Inhibition Average: concentration or dose not given beside the values; conditions: LRRK2 R1441C
# various kinases [21] = biological target: various kinases (Homo sapiens, UniProt P50613); test: as above; parameters: % Inhibition Average: concentration or dose not given beside the values; conditions: CDK7/cyclin H/MNAT1
# various kinases [22] = biological target: various kinases (Homo sapiens, UniProt P51617); test: as above; parameters: % Inhibition Average: concentration or dose not given beside the values; conditions: IRAK1
# various kinases [23] = biological target: various kinases (Homo sapiens, UniProt O60285); test: as above; parameters: % Inhibition Average: concentration or dose not given beside the values; conditions: NUAK1 (ARK5)
# various kinases [24] = biological target: various kinases (Homo sapiens, UniProt P42336, E545K); test: as above; parameters: % Inhibition Average: concentration or dose not given beside the values; conditions: PIK3CA E545K/PIK3R1 (p110 alpha E545K/p85 alpha)
# various kinases [25] = biological target: various kinases (Homo sapiens, UniProt Q5S007); test: as above; parameters: % Inhibition Average: concentration or dose not given beside the values
# various kinases [26] = biological target: various kinases (Homo sapiens, UniProt O60331); test: as above; parameters: % Inhibition Average: concentration or dose not given beside the values; conditions: kinase PIP5K1C; Adapta
# various kinases [27] = biological target: various kinases (Homo sapiens, UniProt O00329); test: as above; parameters: % Inhibition Average: concentration or dose not given beside the values; conditions: PIK3CD/PIK3R1 (p110 delta/p85 alpha)
# various kinases [28] = biological target: various kinases (Homo sapiens, UniProt O15111); test: as above; parameters: % Inhibition Average: concentration or dose not given beside the values; conditions: CHUK (IKK alpha)
# various kinases [29] = biological target: various kinases (Homo sapiens, UniProt P42356); test: as above; parameters: % Inhibition Average: concentration or dose not given beside the values; conditions: PI4KA (PI4K alpha)
# various kinases [30] = biological target: various kinases (Homo sapiens, UniProt P48736); test: as above; parameters: % Inhibition Average: concentration or dose not given beside the values; conditions: PIK3CG (p110 gamma)
# Chain of various kinases (Homo sapiens, UniProt Q16539) (Q16539 whole entry): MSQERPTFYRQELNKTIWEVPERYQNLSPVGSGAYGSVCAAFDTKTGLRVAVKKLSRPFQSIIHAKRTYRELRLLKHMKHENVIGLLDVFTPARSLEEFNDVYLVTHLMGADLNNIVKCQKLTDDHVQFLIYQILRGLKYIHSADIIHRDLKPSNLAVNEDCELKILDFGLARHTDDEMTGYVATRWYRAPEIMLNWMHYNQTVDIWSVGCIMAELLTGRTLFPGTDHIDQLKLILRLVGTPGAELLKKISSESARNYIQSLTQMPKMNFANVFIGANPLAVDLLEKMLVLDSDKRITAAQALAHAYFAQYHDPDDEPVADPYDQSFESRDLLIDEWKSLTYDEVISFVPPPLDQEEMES
# Chain of various kinases (Homo sapiens, UniProt O60285) (O60285 whole entry): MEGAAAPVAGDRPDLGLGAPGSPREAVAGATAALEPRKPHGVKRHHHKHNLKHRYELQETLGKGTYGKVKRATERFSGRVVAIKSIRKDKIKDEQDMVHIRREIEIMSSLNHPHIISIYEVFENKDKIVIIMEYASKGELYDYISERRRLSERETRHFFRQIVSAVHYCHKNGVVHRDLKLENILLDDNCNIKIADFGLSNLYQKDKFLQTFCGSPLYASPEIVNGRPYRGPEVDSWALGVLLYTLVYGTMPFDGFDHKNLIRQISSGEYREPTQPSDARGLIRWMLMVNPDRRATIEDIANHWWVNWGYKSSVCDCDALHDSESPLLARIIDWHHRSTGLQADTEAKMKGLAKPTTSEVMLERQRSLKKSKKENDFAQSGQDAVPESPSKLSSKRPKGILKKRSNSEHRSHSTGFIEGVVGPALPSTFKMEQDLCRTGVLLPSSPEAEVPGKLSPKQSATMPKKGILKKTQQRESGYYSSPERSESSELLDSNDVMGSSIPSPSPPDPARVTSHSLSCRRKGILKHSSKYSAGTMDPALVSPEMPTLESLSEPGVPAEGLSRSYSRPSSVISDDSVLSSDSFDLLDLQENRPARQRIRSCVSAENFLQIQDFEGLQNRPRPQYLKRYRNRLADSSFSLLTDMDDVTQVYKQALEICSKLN
# Chain of various kinases (Homo sapiens, UniProt Q5S007) (Q5S007 whole entry): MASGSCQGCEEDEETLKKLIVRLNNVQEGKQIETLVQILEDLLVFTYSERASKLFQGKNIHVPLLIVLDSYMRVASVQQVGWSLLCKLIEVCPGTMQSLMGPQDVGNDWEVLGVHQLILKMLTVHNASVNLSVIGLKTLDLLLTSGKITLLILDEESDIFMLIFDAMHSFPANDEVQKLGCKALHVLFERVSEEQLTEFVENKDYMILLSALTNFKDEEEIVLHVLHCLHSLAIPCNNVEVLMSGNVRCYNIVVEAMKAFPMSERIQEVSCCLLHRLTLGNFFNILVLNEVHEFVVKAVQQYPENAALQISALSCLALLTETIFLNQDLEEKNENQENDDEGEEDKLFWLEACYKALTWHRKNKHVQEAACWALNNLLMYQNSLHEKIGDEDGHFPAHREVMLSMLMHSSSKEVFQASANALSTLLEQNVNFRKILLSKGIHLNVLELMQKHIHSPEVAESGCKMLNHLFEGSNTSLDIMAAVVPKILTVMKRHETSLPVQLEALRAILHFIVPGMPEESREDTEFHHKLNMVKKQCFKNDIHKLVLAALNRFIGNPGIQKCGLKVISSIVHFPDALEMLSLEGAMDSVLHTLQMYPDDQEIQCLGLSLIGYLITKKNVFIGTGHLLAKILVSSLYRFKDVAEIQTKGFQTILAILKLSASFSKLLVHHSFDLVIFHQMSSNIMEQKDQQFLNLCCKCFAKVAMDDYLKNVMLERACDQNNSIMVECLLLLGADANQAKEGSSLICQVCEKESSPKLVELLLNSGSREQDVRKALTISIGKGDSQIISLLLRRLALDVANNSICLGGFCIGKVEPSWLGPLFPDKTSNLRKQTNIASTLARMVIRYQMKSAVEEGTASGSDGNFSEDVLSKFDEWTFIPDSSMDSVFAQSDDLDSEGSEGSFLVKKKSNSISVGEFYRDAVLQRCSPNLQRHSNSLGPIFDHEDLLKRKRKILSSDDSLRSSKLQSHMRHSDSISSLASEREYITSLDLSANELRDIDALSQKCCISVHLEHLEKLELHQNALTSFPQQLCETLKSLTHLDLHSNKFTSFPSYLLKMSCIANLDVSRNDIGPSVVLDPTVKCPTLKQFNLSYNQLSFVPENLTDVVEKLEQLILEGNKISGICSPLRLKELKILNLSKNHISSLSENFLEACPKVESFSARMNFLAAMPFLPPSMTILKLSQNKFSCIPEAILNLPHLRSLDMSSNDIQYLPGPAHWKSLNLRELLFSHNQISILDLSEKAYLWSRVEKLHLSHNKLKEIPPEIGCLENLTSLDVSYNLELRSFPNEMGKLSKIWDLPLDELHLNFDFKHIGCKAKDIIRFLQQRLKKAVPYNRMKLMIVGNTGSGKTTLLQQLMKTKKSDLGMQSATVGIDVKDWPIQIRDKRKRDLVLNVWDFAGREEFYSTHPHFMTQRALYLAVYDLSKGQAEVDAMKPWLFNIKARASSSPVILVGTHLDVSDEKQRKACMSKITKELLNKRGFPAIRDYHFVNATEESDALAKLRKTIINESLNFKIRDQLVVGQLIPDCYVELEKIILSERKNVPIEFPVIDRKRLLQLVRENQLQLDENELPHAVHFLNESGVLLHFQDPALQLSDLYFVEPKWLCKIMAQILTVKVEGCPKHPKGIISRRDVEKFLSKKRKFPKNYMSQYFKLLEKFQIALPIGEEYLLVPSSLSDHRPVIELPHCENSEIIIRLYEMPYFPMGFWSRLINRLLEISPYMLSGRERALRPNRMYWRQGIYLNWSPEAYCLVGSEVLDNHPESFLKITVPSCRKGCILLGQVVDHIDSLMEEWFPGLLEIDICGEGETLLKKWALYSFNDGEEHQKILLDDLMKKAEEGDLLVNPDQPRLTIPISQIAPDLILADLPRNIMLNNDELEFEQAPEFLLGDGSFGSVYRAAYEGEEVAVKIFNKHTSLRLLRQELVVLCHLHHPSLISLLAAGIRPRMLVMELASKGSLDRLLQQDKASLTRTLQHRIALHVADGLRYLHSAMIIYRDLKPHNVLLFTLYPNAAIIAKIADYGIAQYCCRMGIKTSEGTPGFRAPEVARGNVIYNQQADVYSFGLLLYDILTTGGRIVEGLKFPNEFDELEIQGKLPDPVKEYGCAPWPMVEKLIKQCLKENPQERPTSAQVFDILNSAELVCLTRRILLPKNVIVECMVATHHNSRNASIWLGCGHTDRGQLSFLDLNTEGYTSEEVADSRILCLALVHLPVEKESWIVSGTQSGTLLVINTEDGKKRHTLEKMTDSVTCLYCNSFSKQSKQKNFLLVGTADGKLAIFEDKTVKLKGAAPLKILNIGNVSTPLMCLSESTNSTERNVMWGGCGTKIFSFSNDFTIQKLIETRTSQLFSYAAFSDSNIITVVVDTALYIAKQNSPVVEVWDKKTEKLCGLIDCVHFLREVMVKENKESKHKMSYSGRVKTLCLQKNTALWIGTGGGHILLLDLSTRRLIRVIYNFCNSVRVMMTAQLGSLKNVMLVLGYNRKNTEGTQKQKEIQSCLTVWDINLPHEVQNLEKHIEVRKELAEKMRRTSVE
# Chain of various kinases (Homo sapiens, UniProt P11802) (P11802 whole entry): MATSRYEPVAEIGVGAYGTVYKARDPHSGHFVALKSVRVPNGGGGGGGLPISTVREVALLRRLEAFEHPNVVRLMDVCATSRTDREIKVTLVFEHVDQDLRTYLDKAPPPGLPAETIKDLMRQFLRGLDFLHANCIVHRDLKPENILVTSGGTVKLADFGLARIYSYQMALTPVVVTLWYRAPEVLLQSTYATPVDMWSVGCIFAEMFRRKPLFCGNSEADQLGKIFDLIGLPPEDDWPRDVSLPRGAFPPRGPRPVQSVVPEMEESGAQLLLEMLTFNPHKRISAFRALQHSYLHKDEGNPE
# Chain of various kinases (Homo sapiens, UniProt Q9H4B4) (Q9H4B4 whole entry): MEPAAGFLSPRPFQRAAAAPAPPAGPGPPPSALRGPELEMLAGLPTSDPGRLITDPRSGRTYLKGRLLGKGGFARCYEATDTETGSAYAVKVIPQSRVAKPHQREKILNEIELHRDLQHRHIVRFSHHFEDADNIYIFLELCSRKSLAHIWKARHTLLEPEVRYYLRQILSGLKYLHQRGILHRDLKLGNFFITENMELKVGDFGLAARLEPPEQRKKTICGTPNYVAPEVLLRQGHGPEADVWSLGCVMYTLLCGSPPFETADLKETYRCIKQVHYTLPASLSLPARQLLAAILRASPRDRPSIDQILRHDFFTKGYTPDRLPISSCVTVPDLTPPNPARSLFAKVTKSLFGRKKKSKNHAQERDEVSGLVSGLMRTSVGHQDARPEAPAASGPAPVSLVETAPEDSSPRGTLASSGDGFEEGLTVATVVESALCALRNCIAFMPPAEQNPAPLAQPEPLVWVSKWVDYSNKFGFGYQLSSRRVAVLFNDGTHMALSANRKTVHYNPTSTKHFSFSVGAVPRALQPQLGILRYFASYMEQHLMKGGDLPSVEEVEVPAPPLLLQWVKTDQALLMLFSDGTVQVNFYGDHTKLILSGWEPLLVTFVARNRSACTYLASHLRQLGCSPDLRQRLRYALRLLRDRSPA
# Chain of various kinases (Homo sapiens, UniProt P50613) (P50613 whole entry): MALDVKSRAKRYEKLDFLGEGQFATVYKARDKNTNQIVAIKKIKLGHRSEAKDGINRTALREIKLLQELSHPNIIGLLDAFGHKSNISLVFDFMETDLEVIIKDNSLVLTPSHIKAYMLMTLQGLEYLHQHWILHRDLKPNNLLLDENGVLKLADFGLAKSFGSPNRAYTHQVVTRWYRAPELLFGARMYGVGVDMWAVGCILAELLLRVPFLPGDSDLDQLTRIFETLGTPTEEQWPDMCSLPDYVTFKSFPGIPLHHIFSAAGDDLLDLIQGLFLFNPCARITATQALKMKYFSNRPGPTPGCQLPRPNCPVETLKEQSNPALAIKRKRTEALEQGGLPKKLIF
# Chain of various kinases (Homo sapiens, UniProt Q5S007, R1441C) (Q5S007 whole entry R1441C): as the sequence (Q5S007 whole entry) above, with R1441C counted along it
compound,measurement,setting,value
COc1ccc2c(c1)[C@]1(C[C@H]1c1ccc3c(/C=C/c4ccc(CN5C[C@@H](C)O[C@@H](C)C5)cc4)n[nH]c3c1)C(=O)N2 [CFI-400945],polyploidy (cell cycle analysis),[1],extreme polyploidy
same,% Inhibition,various kinases [2],3% and 1%
same,% Inhibition Average,various kinases [3],-2%
same,% Inhibition Duplicate #1,various kinases [3],-7%
same,% Inhibition Duplicate #2,various kinases [3],3%
same,% Inhibition,various kinases [4],7% and 6%
same,% Inhibition,various kinases [5],-1% and 1%
same,% Inhibition,various kinases [6],3% and 2%
same,% Inhibition,various kinases [7],-2% and 1%
same,% Inhibition,various kinases [8],4% and 6%
same,% Inhibition,various kinases [9],0% and 7%
same,% Inhibition,various kinases [10],2% and -4%
same,% Inhibition,various kinases [11],13% and 11%
same,% Inhibition,various kinases [12],5%
same,% Inhibition Average,various kinases [13],-3%
same,% Inhibition Duplicate #1,various kinases [13],-10%
same,% Inhibition Duplicate #2,various kinases [13],3%
same,% Inhibition,various kinases [14]; MAPK14 (p38 alpha),8% and 0%
same,% Inhibition,various kinases [14]; MAPK14 (p38 alpha) Direct,11%
same,pIC50,MON cells,5.29
same,% Inhibition,various kinases [15],3% and 11%
same,% Inhibition,various kinases [16],5% and 10%
same,% Inhibition,various kinases [17],-1% and -6%
same,% Inhibition,various kinases [18]; CDK4/cyclin D1,10% and 9%
same,% Inhibition,various kinases [18]; CDK4/cyclin D3,5% and 8%
same,% Inhibition,various kinases [19],-3% and 4%
same,% Inhibition,various kinases [20],35% and 42%
same,% Inhibition,various kinases [21],-11% and -6%
same,% Inhibition,various kinases [22],-8% and -12%
same,% Inhibition,various kinases [23],66% and 65%
same,pIC50,various kinases [23],6.57
same,% Inhibition,various kinases [24],-5% and -9%
same,% Inhibition,various kinases [25]; LRRK2,34% and 26%
same,% Inhibition,various kinases [25]; LRRK2 FL,43% and 42%
same,% Inhibition Average,various kinases [26],8%
same,% Inhibition Duplicate #1,various kinases [26],8%
same,% Inhibition Duplicate #2,various kinases [26],8%
same,% Inhibition,various kinases [27],-2% and -8%
same,% Inhibition,various kinases [28],-11%
same,% Inhibition,various kinases [29],12% and 7%
same,% Inhibition,various kinases [30],-2% and -5%

# Source: PMC5762315, “Inhibition of polo-like kinase 4 (PLK4): a new therapeutic option for rhabdoid tumors and pediatric medulloblastoma” (Oncotarget, 2017)
